This note sets out measurements from US20230234943A1, “TREX1 INHIBITORS AND USES THEREOF” (Tempest Therapeutics, Inc., priority 2020, published 2023).

The structures appear in SMILES notation.

This experiment deals with T1, Human TREX1 enzyme (amino acids 1-242) (Homo sapiens, UniProt Q9NSU2).
T1 construct: Human TREX1 enzyme (amino acids 1-242)
T1 sequence (Q9NSU2 1-242): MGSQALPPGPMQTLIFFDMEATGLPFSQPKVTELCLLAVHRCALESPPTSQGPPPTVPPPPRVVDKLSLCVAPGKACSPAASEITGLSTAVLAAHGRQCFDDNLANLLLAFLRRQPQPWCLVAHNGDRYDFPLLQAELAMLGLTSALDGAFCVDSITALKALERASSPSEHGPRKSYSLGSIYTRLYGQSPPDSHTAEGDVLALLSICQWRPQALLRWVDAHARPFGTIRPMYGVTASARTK
Kind of experiment: Human TREX1 enzymatic assay with dsDNA native oligonucleotide (Picogreen fluorescence). It counts as biochemical. The note with it: 2 mM dithiothreitol in assay buffer; 50 nM dsDNA oligonucleotide; 30 min preincubation at 25° C.; read-out: TREX1/Human + DTT IC50 AVG. The gist of the method: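 TREX1 (0.8–0.16 nM final) preincubated with compound (300 μM–13 nM or 30 μM–1.5 nM, 2% DMSO) 30 min at 25 °C in Tris pH 7.7, 5 mM MgCl2, 2 mM DTT. Annealed dsDNA (50 nM) added for 5–15 min at 25 °C; EDTA quench with Picogreen fluorescence readout.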
For `COc1cc(-c2nc3cc(N4CCN(CC(F)(F)F)CC4)ccc3[nH]2)cc(O)c1O` [Example 52, 3-methoxy-5-(5-(4-(2,2,2-trifluoroethyl)piperazin-1-yl)-1H-benzo[d]imidazol-2-yl)benzene-1,2-diol], the IC50 is above 100 µM.
The result for `COc1cc(-c2nc3cc(N4CCN(c5ccccc5)CC4)ccc3[nH]2)cc(O)c1O` [Example 53, 3-methoxy-5-(5-(4-phenylpiperazin-1-yl)-1H-benzo[d]imidazol-2-yl)benzene-1,2-diol] reads above 100 µM; that for `COc1cc(-c2nc3ccncc3n2C)c(C)c(O)c1O` [Example 54, 6-methoxy-3-methyl-4-(3-methyl-3H-imidazo[4,5-c]pyridin-2-yl)benzene-1,2-diol], 10 to 100 µM.
The result for `COc1cc(-c2nc3cc(N4CCOCC4)ncc3[nH]2)cc(O)c1O` [Example 55, 3-methoxy-5-(6-morpholino-3H-imidazo[4,5-c]pyridin-2-yl)benzene-1,2-diol] reads above 100 µM; that for `O=C(O)c1ccc(-c2nc3ccccc3n2C2COC2)cc1O` [Example 56, 2-hydroxy-4-(1-(oxetan-3-yl)-1H-benzo[d]imidazol-2-yl)benzoic acid], above 100 µM.
The figure for `COc1cc(-c2nc3cc(N4CCN(C5CCCCC5)CC4)ccc3[nH]2)cc(O)c1O` [Example 57, 5-(5-(4-cyclohexylpiperazin-1-yl)-1H-benzo[d]imidazol-2-yl)-3-methoxybenzene-1,2-diol] is above 100 µM; for `COc1cc(-c2nc3cc(C4CCNCC4)ccc3[nH]2)cc(O)c1O` [Example 58, 3-methoxy-5-(5-(piperidin-4-yl)-1H-benzo[d]imidazol-2-yl)benzene-1,2-diol] it is above 100 µM; for `COc1cc(-c2nc3cc(N4CCN(Cc5ccccc5)CC4)ccc3[nH]2)cc(O)c1O` [Example 59, 5-(5-(4-benzylpiperazin-1-yl)-1H-benzo[d]imidazol-2-yl)-3-methoxybenzene-1,2-diol] it is 10 to 100 µM.
As for `COc1cc(-c2nc3cc(N4CCN(C)CC4)ccc3n2C2COC2)cc(O)c1O` [Example 60, 3-methoxy-5-(5-(4-methylpiperazin-1-yl)-1-(oxetan-3-yl)-1H-benzo[d]imidazol-2-yl)benzene-1,2-diol], the IC50 was 10 to 100 µM.
The figure for `COCCN1CCN(c2ccc3[nH]c(-c4cc(O)c(O)c(OC)c4)nc3c2)CC1` [Example 61, 3-methoxy-5-(5-(4-(2-methoxyethyl)piperazin-1-yl)-1H-benzo[d]imidazol-2-yl)benzene-1,2-diol] is above 100 µM.
The figure for `COc1cc(-c2nc3cc(N4CCN(c5cccnc5)CC4)ccc3[nH]2)cc(O)c1O` [Example 62, 3-methoxy-5-(5-(4-(pyridin-3-yl)piperazin-1-yl)-1H-benzo[d]imidazol-2-yl)benzene-1,2-diol] is 1 to 10 µM; for `COc1cc(-c2nc3ccc(N4CCOCC4)cc3n2C)cc(O)c1O` [Example 63, 3-methoxy-5-(1-methyl-6-morpholino-1H-benzo[d]imidazol-2-yl)benzene-1,2-diol] it is 10 to 100 µM; for `COc1c(O)c(O)c(C)c(-c2nc3ccccc3[nH]2)c1F` [Example 64, 4-(1H-benzo[d]imidazol-2-yl)-5-fluoro-6-methoxy-3-methylbenzene-1,2-diol] it is 10 to 100 µM.
The figure for `CCCCN1CCN(c2ccc3[nH]c(-c4cc(O)c(O)c(OC)c4)nc3c2)CC1` [Example 65, 5-(5-(4-butylpiperazin-1-yl)-1H-benzo[d]imidazol-2-yl)-3-methoxybenzene-1,2-diol] is above 100 µM.
For the molecule `COc1cc(-c2nc3cc(N4CCN(CCF)CC4)ccc3[nH]2)cc(O)c1O` [Example 66, 5-(5-(4-(2-fluoroethyl)piperazin-1-yl)-1H-benzo[d]imidazol-2-yl)-3-methoxybenzene-1,2-diol], the IC50 lay within 10 to 100 µM.
The figure for `COc1ccc2c(c1)CCN(c1ccc3[nH]c(-c4cc(O)c(O)c(OC)c4)nc3c1)C2` [Example 67, 3-methoxy-5-(5-(6-methoxy-3,4-dihydroisoquinolin-2(1H)-yl)-1H-benzo[d]imidazol-2-yl)benzene-1,2-diol] is above 100 µM.
